Common to all, as to format: biochemical
One experiment deals with β-lactamase Citrobac. The experiment in a line: β-lactamase inhibition, Citrobac. enzyme. The method, then: (§1) The β-lactamase inhibiting activity of certain compounds of the formula (e36) was determined by the method described in Belgian Patent No. 827,926 and the results are shown in Table 1.
The target of another experiment is β-lactamase Ps. aerug. (Pseudomonas aeruginosa, UniProt P24735). The experiment in a line: β-lactamase inhibition, Ps. aerug. enzyme. As to conditions: read-out: % Inhibition of - lactamases at 40 μg/ml, Ps. aerug. Here is the method: as §1
The target of another experiment is β-lactamase E.Coli JT4 (Escherichia coli, UniProt P62593). In words: β-lactamase inhibition, E.Coli JT4 enzyme. The following applies: read-out: % Inhibition of - lactamases at 40 μg/ml, E.Coli JT4. The method, then:
as §1

The next experiment deals with β-lactamase Kleb. ε 70. The experiment in a line: β-lactamase inhibition, Kleb. ε 70 enzyme. Here is the method: as §1
The next experiment addresses β-lactamase Ps. dalgl. (Pseudomonas aeruginosa, UniProt P16897). The experiment in a line: β-lactamase inhibition, Ps. dalgl. enzyme. The following applies: read-out: % Inhibition of - lactamases at 40 μg/ml, Ps. dalgl. Here is the method: as §1
For experiment [1], the target named is β-lactamase Staph. Russell (Staphylococcus aureus, UniProt P00807). In words: β-lactamase inhibition, Staph. Russell enzyme. The following applies: read-out: % Inhibition of - lactamases at 40 μg/ml, Staph. Russell. The method, then: as §1
The next experiment deals with β-lactamase Proteus C889. The experiment in a line: β-lactamase inhibition, Proteus C889 enzyme. Here is the method: as §1

SMILES strings stand for the structures.

Chain of β-lactamase E.Coli JT4 (P62593 24-286 limits assumed): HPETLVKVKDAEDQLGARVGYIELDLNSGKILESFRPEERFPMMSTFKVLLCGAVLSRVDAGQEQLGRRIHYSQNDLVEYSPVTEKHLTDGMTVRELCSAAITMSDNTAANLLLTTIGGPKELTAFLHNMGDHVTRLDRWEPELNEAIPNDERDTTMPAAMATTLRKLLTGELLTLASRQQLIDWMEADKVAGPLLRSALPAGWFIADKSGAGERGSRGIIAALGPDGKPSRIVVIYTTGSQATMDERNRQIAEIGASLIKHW
Chain of β-lactamase Ps. aerug. (P24735 27-397): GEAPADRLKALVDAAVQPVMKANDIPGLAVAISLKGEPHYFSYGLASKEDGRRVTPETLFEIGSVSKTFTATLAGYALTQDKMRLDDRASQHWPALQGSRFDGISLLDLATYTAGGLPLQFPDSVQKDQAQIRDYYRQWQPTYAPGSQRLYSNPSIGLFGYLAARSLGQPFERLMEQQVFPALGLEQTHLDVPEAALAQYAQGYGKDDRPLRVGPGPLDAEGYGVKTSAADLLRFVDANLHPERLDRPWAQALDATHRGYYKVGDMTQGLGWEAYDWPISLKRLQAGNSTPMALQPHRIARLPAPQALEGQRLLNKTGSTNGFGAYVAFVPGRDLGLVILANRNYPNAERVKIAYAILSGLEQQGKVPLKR
Chain of β-lactamase Staph. Russell (P00807 25-281): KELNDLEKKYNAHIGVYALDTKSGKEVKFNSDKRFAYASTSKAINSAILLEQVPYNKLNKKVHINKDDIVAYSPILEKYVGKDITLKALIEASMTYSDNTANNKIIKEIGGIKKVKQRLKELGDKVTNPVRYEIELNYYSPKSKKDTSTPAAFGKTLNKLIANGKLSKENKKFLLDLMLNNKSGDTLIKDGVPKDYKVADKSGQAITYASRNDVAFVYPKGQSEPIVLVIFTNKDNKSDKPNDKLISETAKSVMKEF
Chain of β-lactamase Ps. dalgl. (P16897 18-288): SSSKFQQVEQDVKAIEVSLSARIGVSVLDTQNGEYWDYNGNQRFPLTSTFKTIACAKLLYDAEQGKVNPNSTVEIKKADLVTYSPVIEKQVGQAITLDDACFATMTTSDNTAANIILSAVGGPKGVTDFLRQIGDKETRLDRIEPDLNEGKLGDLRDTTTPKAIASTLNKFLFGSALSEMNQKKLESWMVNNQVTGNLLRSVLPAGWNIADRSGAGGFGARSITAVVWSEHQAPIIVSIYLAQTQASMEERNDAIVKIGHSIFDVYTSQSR

For `O=C(O)[C@H]1CO[C@@H]2CC(=O)N12` (relative stereo) [H, Na, (2RS,5RS)], the “% Inhibition of - lactamases at 40 μg/ml, Citrobac.” value (“% Inhibition … Citrobac.” for short) in the experiment on β-lactamase Citrobac. turned out to be 0%. Besides, the inhibition at 40 µg/mL at β-lactamase Ps. aerug. amounted to 14%; at β-lactamase E.Coli JT4 it was 28%; on β-lactamase Ps. dalgl., 0%; in experiment [1] it was 33%. Also, the “% Inhibition of - lactamases at 40 μg/ml, Kleb. ε 70” value (shortened to “% Inhibition … Kleb. ε 70”) in the experiment with β-lactamase Kleb. ε 70 is on record as 78%.
Consider `O=C(OCc1ccccc1)[C@@H]1O[C@@H]2CC(=O)N2[C@H]1C(=O)OCc1ccccc1` [CO2 CH2 Ph, CO2 CH2 Ph, (2R,3R,5R), Dibenzyl (2R, 3R, 5R)-7-oxo-4-oxa-1-azabicyclo-[3.2.0]heptan-2,3-Dicarboxylate], for which the “% Inhibition … Citrobac.” value with β-lactamase Citrobac. was found to be 2%. Also, the inhibition at 40 µg/mL was found to be 9% on β-lactamase Ps. aerug., 65% on β-lactamase E.Coli JT4, 26% on β-lactamase Ps. dalgl. and 0% in experiment [1]. Moreover, the “% Inhibition of - lactamases at 40 μg/ml, Proteus C889” value (“% Inhibition … Proteus C889” for short) in the experiment with β-lactamase Proteus C889 was found to be 23%. For the same compound, the “% Inhibition … Kleb. ε 70” value in the experiment with β-lactamase Kleb. ε 70 turned out to be 56%.
Consider `COC(=O)[C@H]1[C@H](CBr)O[C@@H]2CC(=O)N21` (relative stereo) [CH2 Br, CO2 CH3, (2RS,3RS,5RS)], for which, at β-lactamase Citrobac. (value printed in parentheses), the “I50 values (in parentheses), Citrobac.” value worked out at 10.3 µg/mL. For the same compound, the inhibition at 40 µg/mL was found to be 8% at β-lactamase Ps. aerug., 42% at β-lactamase E.Coli JT4, 17% at β-lactamase Ps. dalgl. and 12% in experiment [1]. Besides, the “% Inhibition … Proteus C889” value in the experiment on β-lactamase Proteus C889 amounted to 42%. Besides, in the experiment on β-lactamase Kleb. ε 70, the “% Inhibition … Kleb. ε 70” value came to 4%.
As to `COC(=O)[C@H]1[C@H](CCOS(=O)(=O)c2ccc(C)cc2)O[C@@H]2CC(=O)N21` (relative stereo), the “% Inhibition … Citrobac.” value in the experiment with β-lactamase Citrobac. is on record as 5%. Further, the inhibition at 40 µg/mL at β-lactamase Ps. aerug. was determined as 11%; at β-lactamase E.Coli JT4, 33%; at β-lactamase Ps. dalgl., 11%; in experiment [1] it was 4%. Besides, the “% Inhibition … Kleb. ε 70” value in the experiment with β-lactamase Kleb. ε 70 came to 0%.
As to `COC(=O)[C@H]1[C@H](CCO)O[C@@H]2CC(=O)N21` (relative stereo) [CH2 CH2 OH, Me, (2RS,3SR,5RS)], the “% Inhibition … Citrobac.” value in the experiment with β-lactamase Citrobac. is on record as 2%. The inhibition at 40 µg/mL on β-lactamase Ps. aerug. turned out to be 10%; at β-lactamase E.Coli JT4, 15%; on β-lactamase Ps. dalgl., 0%; in experiment [1], 10%. For the same compound, the “% Inhibition … Proteus C889” value in the experiment on β-lactamase Proteus C889 was 29%. In addition, in the experiment with β-lactamase Kleb. ε 70, the “% Inhibition … Kleb. ε 70” value came out at 14%.

The record behind these values is patent US4138403A, “Azabicycloheptanes” (Beecham Group Limited, priority 1975, dated 1979).
